In patent US9718858B2, “Tunable control of protein degradation in synthetic and endogenous bacterial systems” (priority 2013, dated 2017):

Tests used:
[1] = tested on: mf-Lon; experiment: GFP-pdt degradation platform in E. coli, Example 1 (plasmid-borne aTc-inducible mf-Lon); format: cell-based; conditions: for Fold Degradation: 0 ng/ml aTc versus 50 ng/ml aTc; for 50 ng/ml aTc (GFP fluorescence, untagged GFP set to 100) / 0 ng/ml aTc (GFP fluorescence, untagged GFP set to 100): GFP-pdt fusion in E. coli, 10 h; for 50 ng/ml aTc (GFP fluorescence, untagged GFP set to 100): mf-Lon induced with 50 ng/ml aTc; for 0 ng/ml aTc (GFP fluorescence, untagged GFP set to 100): no mf-Lon induction
Description: Strains, Plasmids and Reagents. The E. coli K-12 derivative strain MG1655Pro (F-, λ-, Sp^r, lacI, tetR) published previously^1,46 was used as the wild-type strain in all cases except for the synthetic toggle experiments where MG1655ΔlacIΔaraBAD was prepared and used as described herein. Unless otherwise noted, bacteria were grown in Luria broth (LB) at 30° with shaking and mf-Lon expression was induced with 50 ng/ml aTc. Antibiotics carbenicillin (100 ug/ml) and kanamycin (30 ug/ml) were added to the media when appropriate. All plasmids and strain mutations were verified by sequencing, and plasmid maps will be deposited in GenBank.
GFP Degradation Platform. The GFP variant GFPmut3b^47 was used for all GFP expression. GFP-pdt variants were expressed from the constitutive PlacIq promoter^48 on a high-copy plasmid containing the ColE1 origin and a kanamycin-resistance cassette. The PLtetO promoter was used to express mf-Lon on a medium-copy plasmid containing the P15A origin and ampicillin-resistance cassette.
Flow Cytometry. GFP expression was measured using a […] (BD BIOSCIENCES) flow cytometer with the following voltage settings: FCS, 340; SCS, 270; FITC (for GFP), 520; mCherry, 615. At least 10,000 cells were collected for each measurement and FloJo was used for data analysis.
Plate Fluorimetry and Optical Density. Fluorescence and optical density measurements were made with a SPECTRAMAX M5 microplate reader (MOLECULAR DEVICES) using excitation and emission wavelengths of 488 nm and 520 nm, respectively, with an emission filter cutoff at 515 nm Optical density was measured at 600 nm (0D600). All measurements were made in 200 μl in 96-well clear bottom plates.
PDT Mutagenesis Screens. Polymerase chain reaction (PCR) primers containing randomized nucleotides were used to mutagenize the indicated pdt codons. Plasmids containing the mutagenized tags fused to gfp were co-transformed with the mf-Lon expression plasmid into MG1655Pro. Transformants were picked into 96-well plates, grown to mid-log phase, diluted 1:20 into media with and without 50 ng/ml aTc and measured by plate reader after 10 h growth.

[2] = tested on: mf-Lon; experiment: E. coli-based GFP-pdt degradation platform, Example 2 (genomically integrated codon-optimized mf-Lon, flow cytometry); format: cell-based; conditions: for 50 ng/ml ATc (GFP fluorescence, untagged GFP set to 100) / 0 ng/ml ATc (GFP fluorescence, untagged GFP set to 100): GFP-pdt fusion in E. coli, flow cytometry, 6 hours; for 50 ng/ml ATc (GFP fluorescence, untagged GFP set to 100): mf-Lon induced with 50 ng/ml ATc; for 0 ng/ml ATc (GFP fluorescence, untagged GFP set to 100): no mf-Lon induction
Description: Strains and Reagents. The E. coli K-12 derivative strain MG1655Pro (F-, λ-, Spr, lacI, tetR) published previously^2,42 was used as the wild-type strain in all cases except for the synthetic toggle experiments where the inventors used MG1655ΔlacIΔaraBAD, prepared as described in the herein. Unless otherwise noted, E. coli were grown in Luria broth (LB) at 30° C. with shaking and mf-Lon expression was induced with 50 ng/ml ATc. L. lactis strain […] was used for all L. lactis experiments and grown in M17 broth containing 0.5% glucose. Antibiotics carbenicillin (100 ug/ml), kanamycin (30 ug/ml) and erythromycin (10 ug/ml) were added to the media when appropriate. All plasmids and strain mutations were verified by sequencing, and plasmid maps will be deposited in GenBank.
E. coli-Based Degradation Platform. The mf-lon gene was codon optimized for E. coli expression, placed under control of the PLtetO promoter, and integrated into the lacZ locus along with 5′ and 3′ transcriptional terminators to block unwanted mf-Lon expression from any proximal genomic promoters. The GFP variant GFPmut3b was used for all GFP expression, and GFP-pdt and mCherry-pdt variants were expressed from the constitutive PlacIq promoter on a high-copy plasmid containing the ColE1 origin and the kanamycin resistance cassette kanR.
Flow Cytometry. Data for GFP and mCherry degradation dynamics were collected using an LSRFortessa cell analyzer equipped with a High Throughput Sampler (BD Biosciences), and data for the synthetic toggle switch were collected using a FACSArian flow cytometer (BD Biosciences). For each measurement, cells were fixed in 1% paraformaldehyde (PFA), held at 4° C. for up to 5 days, and then diluted 1:10 in PBS for analysis. At least 5,000 cells were collected for each measurement and FloJo (Treestar) was used for data analysis. […]

[3] = tested on: synthetic toggle switch (LacI/TetR); experiment: Protease-driven control of a synthetic toggle switch, Example 2; format: cell-based, E. coli
Description: Flow Cytometry. Data for GFP and mCherry degradation dynamics were collected using an LSRFortessa cell analyzer equipped with a High Throughput Sampler (BD Biosciences), and data for the synthetic toggle switch were collected using a FACSArian flow cytometer (BD Biosciences). For each measurement, cells were fixed in 1% paraformaldehyde (PFA), held at 4° C. for up to 5 days, and then diluted 1:10 in PBS for analysis. At least 5,000 cells were collected for each measurement and FloJo (Treestar) was used for data analysis.
Synthetic Toggle Switch. The plasmid pKDL071R8, based on pKDL07143, was altered to contain a weakened tetR ribosome binding site (RBS) to enhance toggle bistability in the minimal media conditions used. This plasmid served as the parental strain for all LacI-pdt toggle switch experiments. Pdt variants were fused to lad by overlapping PCR and cloned into pKDL071R8 using SacII and BsrGI. The arabinose inducible PBAD promoter was used to express mf-Lon from a second plasmid. Cells containing the toggle switch and mf-Lon expression plasmids were grown in 200 μl in 96-well round bottom plates at 37° C. in M9 minimal media containing 0.2% glycerol and 0.05% casamino acids, and care was taken to maintain exponential growth throughout the experiment. […]

Substance | Fold Degradation [1] | 50 ng/ml aTc (GFP fluorescence, untagged GFP set to 100) [1] [%] | 0 ng/ml aTc (GFP fluorescence, untagged GFP set to 100) [1] [%] | drop in GFP following mf-Lon induction ([1]; from initial (steady-state) levels) [fold] | GFP-pdt levels compared with untagged GFP ([1]; late-log and stationary phase, constitutive expression, no mf-Lon) | GFP-pdt remaining, % of its initial levels after mf-Lon expression [2] [%] | 50 ng/ml ATc (GFP fluorescence, untagged GFP set to 100) [2] [%] | 0 ng/ml ATc (GFP fluorescence, untagged GFP set to 100) [2] [%] | toggle switching relative to LacI-pdt#3 [3]
AANKNEENTNEVPTFMLNAGQANYAFA [pdt, reference compound] | 20.7 | 0.6 | 12.5 | 21 | markedly lower | 3 | 1 | 50 | 
pdt#1 (AANKNEENTNEVPTFMLNAGQANRLQL) | 24.6 | 0.9 | 21.8 |  |  |  | 1 | 40 | 
pdt#3A: Example 2: aa13-15 FKL, aa24-27 RRRV, SEQ ID NO 114 (AANKNEENTNEVFKLMLNAGQANRRRV) |  |  |  |  |  |  | 27 | 115 | provided temporal control over the circuit switch rate
pdt#3B: Example 2: aa13-15 RAI, aa24-27 RRRV, SEQ ID NO 18 (AANKNEENTNEVRAIMLNAGQANRRRV) |  |  |  |  |  |  | 38 | 100 | provided temporal control over the circuit switch rate
pdt#3C: Example 2: aa13-15 AQP, aa24-27 RRRV, SEQ ID NO 22 (AANKNEENTNEVAQPMLNAGQANRRRV) |  |  |  |  |  |  | 48 | 107 | 
pdt#3D: Example 2: aa13-15 APN, aa24-27 RRRV, SEQ ID NO 19 (AANKNEENTNEVAPNMLNAGQANRRRV) |  |  |  |  |  |  | 66 | 104 | 
pdt#3E: Example 2: aa13-15 PDG, aa24-27 RRRV, SEQ ID NO 115 (AANKNEENTNEVPDGMLNAGQANRRRV) |  |  |  |  |  |  | 87 | 112 | 
